Laboratory results published in patent US20170237129A1, “Quaternary Ammonium Halides With Ether Functional Groups For Use As Battery Electrolytes” (Albemarle Corporation, priority 2014, published 2017).

Experiments:
Type in all cases: physicochemical
[1] = Measurement of free bromine in aqueous phase; settings: stirred 24 hrs, top aqueous phase, wt %
Text: The forward operation of a bromine-containing battery generally involves the conversion of elemental bromine to ionic bromine. The quat/Br2 complex results from an equilibrium reaction in which the Br2 is released from the complex as the concentration of free Br2 in the aqueous electrolyte drops during battery operation. In its fully charged state, the electrolyte solution inevitably contains some degree of uncomplexed bromine. A measure of a quat's ability to complex elemental bromine is the amount of elemental bromine left in solution when the complexation reaction proceeds to equilibrium. Such bromine is referred to as “free bromine.” Measurement of free bromine in aqueous phase is set forth in Example 1.
Two slightly different methods were used to prepare the electrolyte compositions, A) one containing 0.7M quat and B) the other containing 0.8M quat. In composition A, 2.0 moles of bromine was added to an aqueous solution containing 0.5 moles of zinc bromide and 0.7 moles of the quat. The two-phase mixture was stirred for 24 hrs. and then the phases were allowed to settle. The top aqueous phase was sampled for free bromine measurement. In composition B, 1.44 moles of bromine was added to an aqueous solution containing 0.5 moles of zinc bromide, 0.4 moles of zinc chloride and 0.8 moles of the quat. The top aqueous phase obtained after stirring for 24 hrs. was used for free bromine measurement.
A 250-ml Erlenmeyer flask was charged with 50 ml of deionized water and weighed (A). A sample of the clear aqueous phase was passed through glass wool to remove any suspended organic phase and then added to the Erlenmeyer flask. The flask was weighed again (B) and the difference in weight (B-A) was noted as the weight of the sample. About 20 ml of 20% potassium iodide solution followed by about 5 ml of starch solution was added to the flask. The resulting dark mixture was titrated against 0.02N sodium thiosulfate solution. The end-point was the disappearance of purple color. Free bromine (wt %) was calculated in the following manner:
Wt % free Br2=Volume (ml) of sodium Thiosulfate×Normality of Sodium thisosulfate/Sample Weight.

[2] = Cloud point determination; settings: 0.7M quat in 2.5M zinc bromide water solution
Procedure: By “cloud point” is meant the cloud point of an aqueous solution containing 0.7 M complexing agent and 2.5 M zinc bromide.
A 0.7M quaternary ammonium bromide in 2.5M Zinc Bromide water solution was prepared. • 2. The solution was transferred to a jacketed flask with a stirring bar and temperature monitor. • 3. The solution was warmed to 15° C. above the expected cloud point. If necessary, any moisture or impurities were removed by filtration. • 4. The solution was stirred, with speed adjustment to about 250 rpm, while avoiding the formation of bubbles. • 5. The solution was cooled gradually (cooling rate of about 1° C./5 min). • 6. The sample was inspected carefully for signs of cloudiness, and the temperature at which cloudiness was observed was recorded to the nearest 0.1° C.

[3] = Free bromine in electrolyte with chloroquat or bromoquat (Example 8); settings: 0.84 M zinc bromide, 0.8 M quat, 1.44 M bromine; stirred 24 hrs at 35° C.
Procedure: Chloride ions are added to the electrolyte in amounts sufficient to reduce the amount of free bromine present and increase the electrolyte conductivity during charging of the cell, Chloride ions in the electrolyte may come from zinc chloride or quaternary ammonium chloride complexing agent. Experiment 1 of Example 8: An aqueous electrolyte system was prepared having 0.84 M zinc bromide, 0.8 M chioroquat (N-methyl, N-butyl pyrrolidinium chloride) and 1.44 M bromine. After the sample was stirred for 24 hrs at 35° C., the amount of free bromine present in the electrolyte was 0.26%. Experiment 2 of Example 8: An aqueous electrolyte system was prepared having 0.84 M zinc bromide, 0.8 M bromoquat (N-methyl, N-butyl pyrrolidinium bromide) and 1.44 M bromine. After the sample was stirred for 24 hrs at 35° C., the amount of free bromine present in the electrolyte was 0.25%.

[4] = 0.7M quat (composition A: 2.0 moles bromine, 0.5 moles zinc bromide, 0.7 moles quat)
[5] = 0.8M quat (composition B: 1.44 moles bromine, 0.5 moles zinc bromide, 0.4 moles zinc chloride, 0.8 moles quat)

| Solubility in ZnBr2 Cloud Point [2] | SMILES | Free Br2 [1, 4] | Free Br2 [1, 5] | further results |
| --- | --- | --- | --- | --- |
| 0.7M, 29 C. | CCCC[N+](C)(C)CCOC.[Br-] [Compound 1, Dimethylbutylether Quat Bromide] | 0.7M 0.28% | – | – |
| 0.7M, <-10.5 C. | CC[N+](CC)(CC)CCOC.[Br-] [Compound 2, (2-methoxyethyl)-triethylammonium bromide] | 0.7M 0.658% | 0.8M 0.467% | – |
| 0.7M, <-10.5 C. | CC[N+](C)(CC)CCOC.[Br-] [Compound 4, diethylmethyl-(2-methoxyethyl)ammonium bromide] | 0.7M 0.70% | – | – |
| 0.7M, 41.2 C. | CCC[N+](CC)(CC)CC.[Br-] [Compound 5, triethylpropylammonium bromide] | 0.7M 0.089% | – | Free Br2 ([1]; 0.7M quat (composition A: 2.0 moles bromine, 0.5 moles zinc bromide, 0.7 moles quat), listed as compound 5): 0.089% |
| 0.7M, 11.9 C. | CC[N+]1(CC)CCCCC1.[Br-] [Compound 9, Diethyl Piperidinium Bromide] | – | 0.8M 0.26% | Free Br2 ([1]; 0.8M quat (composition B: 1.44 moles bromine, 0.5 moles zinc bromide, 0.4 moles zinc chloride, 0.8 moles quat), listed as compound 9): 0.26% |
| 0.7M, 45.8 C. | CCC[N+]1(CC)CCCCC1 [Compound 10, EthyPropyl Piperidinium Bromide] | – | 0.8M 0.026% | Free Br2 ([1]; 0.8M quat (composition B: 1.44 moles bromine, 0.5 moles zinc bromide, 0.4 moles zinc chloride, 0.8 moles quat), listed as compound 10): 0.026% |
| – | CCCC[N+]1(C)CCCC1.[Br-] [bromoquat, N-methyl, N-butyl pyrrolidinium bromide] | – | – | amount of free bromine present in the electrolyte [3]: 0.25% |
| – | CCCC[N+]1(C)CCCC1.[Cl-] [chioroquat, N-methyl, N-butyl pyrrolidinium chloride] | – | – | amount of free bromine present in the electrolyte [3]: 0.26% |
